According to PubChem BioAssay (NCI):
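The concentration for 50% growth inhibition is given as GI50. The concentration for full growth arrest is given as TGI.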

Key:
Test in all cases: DTP human tumour cell line panel, 384-well format
[1] = system: NCI/ADR-RES ovarian
[2] = system: HCT-116 colon
[3] = system: NCI-H226 lung
[4] = system: KM12 colon
[5] = system: SNB-19 CNS
[6] = system: NCI-H522 lung
[7] = system: MDA-MB-231 breast
[8] = system: SF-268 CNS
[9] = system: T-47D breast
[10] = system: M14 melanoma
[11] = system: K-562 leukemia
[12] = system: RPMI-8226 leukemia
[13] = system: IGROV1 ovarian
[14] = system: EKVX NSCLC
[15] = system: MCF7 breast
[16] = system: SK-MEL-2 melanoma
[17] = system: SK-MEL-5 melanoma
[18] = system: CAKI-1 renal
[19] = system: SF-295 CNS
[20] = system: SN12C renal
[21] = system: TK-10 renal
[22] = system: NCI-H460 NSCLC
[23] = system: HL-60(TB) leukemia
[24] = system: HOP-62 NSCLC
[25] = system: HS 578T breast
[26] = system: OVCAR-3 ovarian
[27] = system: U251 glioblastoma
[28] = system: UACC-62 melanoma
[29] = system: SK-MEL-28 melanoma
[30] = system: A498 renal
[31] = system: COLO 205 colon
[32] = system: HCT-15 colon
[33] = system: SF-539 CNS
[34] = system: SK-OV-3 ovarian
[35] = system: MALME-3M melanoma
[36] = system: HT29 colon
[37] = system: LOX IMVI melanoma
[38] = system: NCI-H23 lung
[39] = system: MDA-MB-435 melanoma
[40] = system: MOLT-4 leukemia
[41] = system: NCI-H322M lung
[42] = system: OVCAR-4 ovarian
[43] = system: ACHN renal
[44] = system: RXF 393 renal
[45] = system: A549 NSCLC
[46] = system: MDA-MB-468 breast
[47] = system: BT-549 breast
[48] = system: SR leukemia
[49] = system: CCRF-CEM leukemia
[50] = system: PC-3 prostate
[51] = system: DU-145 prostate
[52] = system: UACC-257 melanoma
[53] = system: SW-620 colon
[54] = system: SNB-75 CNS

With `Cc1noc2c1-c1ccccc1C(c1ccc(Cl)cc1)=N[C@H]2CC(N)=O` the GI50 [1] was 0.639 µM, the TGI [1] was 20.4 µM and the GI50 [2] was 13.5 µM. For the same compound, the TGI [2] was 54.7 µM, the GI50 [3] was 12.2 µM and the TGI [3] was 44 µM. For the same compound, the GI50 [4] was 6.93 µM, the TGI [4] was 44.3 µM and the GI50 [5] was 4.91 µM. The TGI [5] was over 100 µM, the GI50 [6] was 0.04 µM and the TGI [6] was 0.455 µM. The GI50 [7] was 0.612 µM, the TGI [7] was 94.4 µM and the GI50 [8] was 18.1 µM. The TGI [8] was 67.7 µM, the GI50 [9] was 6.48 µM and the TGI [9] was 82 µM. For the same compound, the GI50 [10] was 13.6 µM, the TGI [10] was over 100 µM and the GI50 [11] was 0.697 µM. The TGI [11] was 28 µM, the GI50 [12] was 0.298 µM and the TGI [12] was 12.5 µM. For the same compound, the GI50 [13] was 0.564 µM, the TGI [13] was 30.1 µM and the GI50 [14] was 36.2 µM. It also gave a TGI [14] of over 100 µM, a GI50 [15] of 0.312 µM and a TGI [15] of 17 µM. For the same compound, the GI50 [16] was 34.2 µM, the TGI [16] was 53.2 µM and the GI50 [17] was 1.03 µM. For the same compound, the TGI [17] was 21.3 µM, the GI50 [18] was 0.227 µM and the TGI [18] was 54.3 µM. For the same compound, the GI50 [19] was 18.8 µM, the TGI [19] was over 100 µM and the GI50 [20] was 24.2 µM. For the same compound, the TGI [20] was over 100 µM, the GI50 [21] was 0.504 µM and the TGI [21] was 34.3 µM. For the same compound, the GI50 [22] was 19 µM, the TGI [22] was over 100 µM and the GI50 [23] was 0.102 µM. For the same compound, the TGI [23] was 0.229 µM, the GI50 [24] was 0.4 µM and the TGI [24] was 34.1 µM. The GI50 [25] was 0.292 µM, the TGI [25] was 28.3 µM and the GI50 [26] was 0.812 µM. The TGI [26] was 29.8 µM, the GI50 [27] was 10.2 µM and the TGI [27] was over 100 µM. The GI50 [28] was 0.268 µM, the TGI [28] was 42.1 µM and the GI50 [29] was 21.4 µM. It also gave a TGI [29] of over 100 µM, a GI50 [30] of 1.41 µM and a TGI [30] of 94.4 µM. It also gave a GI50 [31] of 0.78 µM, a TGI [31] of 29 µM and a GI50 [32] of 0.442 µM. For the same compound, the TGI [32] was 19.5 µM, the GI50 [33] was 13 µM and the TGI [33] was over 100 µM. The GI50 [34] was 0.491 µM, the TGI [34] was 38.8 µM and the GI50 [35] was 16.4 µM. It also gave a TGI [35] of 61.4 µM, a GI50 [36] of 0.508 µM and a TGI [36] of 59.2 µM. For the same compound, the GI50 [37] was 0.473 µM, the TGI [37] was 18.1 µM and the GI50 [38] was 1.14 µM. The TGI [38] was 26.8 µM, the GI50 [39] was 6.55 µM and the TGI [39] was 43.5 µM. The GI50 [40] was 0.549 µM, the TGI [40] was 15.8 µM and the GI50 [41] was 3.01 µM. The TGI [41] was over 100 µM, the GI50 [42] was 0.367 µM and the TGI [42] was 3.29 µM. For the same compound, the GI50 [43] was 11.5 µM, the TGI [43] was over 100 µM and the GI50 [44] was 11.6 µM. It also gave a TGI [44] of 34.2 µM, a GI50 [45] of 10.3 µM and a TGI [45] of over 100 µM. For the same compound, the GI50 [46] was 0.685 µM, the TGI [46] was 23 µM and the GI50 [47] was 0.292 µM. It also gave a TGI [47] of 18.7 µM, a GI50 [48] of 0.0478 µM and a TGI [48] of 1.43 µM. The GI50 [49] was 0.629 µM, the TGI [49] was 22.9 µM and the GI50 [50] was 0.723 µM. It also gave a TGI [50] of over 100 µM, a GI50 [51] of 23.6 µM and a TGI [51] of over 100 µM. The GI50 [52] was 16.4 µM, the TGI [52] was over 100 µM and the GI50 [53] was 21.8 µM. The TGI [53] was 71.7 µM, the GI50 [54] was 15.7 µM and the TGI [54] was over 100 µM.
